{
  "source": "ChEMBL document CHEMBL1201862",
  "about": "“PubChem BioAssay data set” (2004)",
  "key": {"[1]": {"test": "intracellular Trypanosoma cruzi inhibitors in host cells – cell-based, plate reader, cherry-pick samples, set 3, dose response (AID 651818);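 note: compounds incubated with infected cells for about four days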", "type": "functional"}, "[2]": {"molecular_target": "Induced myeloid leukemia cell differentiation protein Mcl-1 (Homo sapiens, UniProt Q07820)", "sequence (Q07820 whole entry)": "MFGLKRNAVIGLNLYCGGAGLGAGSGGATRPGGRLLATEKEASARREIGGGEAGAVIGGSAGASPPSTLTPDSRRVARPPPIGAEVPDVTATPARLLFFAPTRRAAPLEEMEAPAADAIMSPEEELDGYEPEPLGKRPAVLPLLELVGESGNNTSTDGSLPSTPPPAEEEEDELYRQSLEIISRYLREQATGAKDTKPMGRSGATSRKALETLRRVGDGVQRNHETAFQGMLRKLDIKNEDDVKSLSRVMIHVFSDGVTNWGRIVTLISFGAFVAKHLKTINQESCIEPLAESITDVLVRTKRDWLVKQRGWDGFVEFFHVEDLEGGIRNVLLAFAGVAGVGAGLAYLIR", "type": "functional"}, "[3]": {"test": "alpha-synuclein stem-loop luciferase translation blockers – H4 neuroglioma cells, luminescence, confirmation (AID 1988)", "type": "functional, cell-based"}, "[4]": {"test": "Luminescence Cell-Based Dose Response HTS to Identify Inhibitors of 5'UTR Stem-Loop Driven Prion Protein mRNA Translation in H4 Neuroglioblastoma Cells. [Related pubchem assays: 1827 (Project Summary), 1813 (Primary HTS)]", "type": "functional"}, "[5]": {"test": "Luminescence Cell-Based Dose Retest to Confirm Inhibitors of Cancer Stem Cells. [Related pubchem assays (depositor defined):AID2717, AID2721]", "type": "functional", "details": "Homo sapiens"}, "[6]": {"test": "luciferase reporter signal suppression in cells – H4 neuroglioma cells, luminescence, dose response (AID 1990)", "type": "functional, cell-based"}, "[7]": {"molecular_target": "Glucose-6-phosphate 1-dehydrogenase (Homo sapiens, UniProt P11413)", "sequence (P11413 whole entry)": "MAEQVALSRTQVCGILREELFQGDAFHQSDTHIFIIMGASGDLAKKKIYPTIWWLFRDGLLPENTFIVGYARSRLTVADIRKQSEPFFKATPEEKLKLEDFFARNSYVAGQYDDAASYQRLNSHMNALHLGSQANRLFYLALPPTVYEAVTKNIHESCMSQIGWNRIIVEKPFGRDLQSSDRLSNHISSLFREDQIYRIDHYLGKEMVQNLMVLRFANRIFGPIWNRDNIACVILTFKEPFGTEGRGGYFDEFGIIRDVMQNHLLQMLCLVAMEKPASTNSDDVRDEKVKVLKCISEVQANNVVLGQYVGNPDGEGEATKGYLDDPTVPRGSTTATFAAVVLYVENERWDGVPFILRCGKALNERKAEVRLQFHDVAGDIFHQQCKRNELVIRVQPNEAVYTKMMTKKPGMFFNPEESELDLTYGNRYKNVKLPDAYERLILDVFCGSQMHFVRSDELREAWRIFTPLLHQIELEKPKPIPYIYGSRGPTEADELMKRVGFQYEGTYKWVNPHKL", "test": "inhibition of Homo sapiens G6PD, dose series – biochemical, fluorescence, selectivity assay for P. falciparum G6PD inhibitor project, dose response (AID 504792)", "type": "functional"}, "[8]": {"test": "NIH3T3 cell viability loss – ATP luminescence, mouse fibroblasts, counter-screen, dose response (AID 2010);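 note: cells exposed to compound for about 90 hours before reading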", "type": "functional, cell-based"}, "[9]": {"test": "Trypanosoma cruzi growth suppression in host cells – NIH3T3 host cells, beta-gal luminescence, confirmation (AID 2044);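 note: luminescent beta-galactosidase reporter signal from transgenic T. cruzi replicating inside host cells; inhibitors lower the luminescence signal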", "type": "functional, cell-based"}, "[10]": {"molecular_target": "DNA dC->dU-editing enzyme APOBEC-3G (Homo sapiens, UniProt Q9HC16)", "sequence (Q9HC16 whole entry)": "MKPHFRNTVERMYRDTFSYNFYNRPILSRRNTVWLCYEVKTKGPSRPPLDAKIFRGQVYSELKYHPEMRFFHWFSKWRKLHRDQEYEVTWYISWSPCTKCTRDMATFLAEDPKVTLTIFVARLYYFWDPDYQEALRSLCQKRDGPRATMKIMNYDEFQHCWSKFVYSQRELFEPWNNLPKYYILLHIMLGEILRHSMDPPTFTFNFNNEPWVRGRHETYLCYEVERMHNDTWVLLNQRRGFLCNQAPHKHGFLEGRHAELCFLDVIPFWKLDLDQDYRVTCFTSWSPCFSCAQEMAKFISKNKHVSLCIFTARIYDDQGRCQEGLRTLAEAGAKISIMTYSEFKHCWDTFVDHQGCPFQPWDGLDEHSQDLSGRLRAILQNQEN", "test": "Dose Response confirmation of small molecule APOBEC3G DNA Deaminase Inhibitors via a fluorescence-based single-stranded DNA deaminase assay. [Related pubchem assays (depositor defined):AID493012, AID493028]", "type": "functional"}, "[11]": {"test": "viability of uninfected HEp-2 cells – cell-based, HTS, cytotoxicity control for RSV inhibitor project, dose response (AID 2410)", "type": "functional", "details": "human respiratory syncytial virus"}, "Fatty acid synthase": {"molecular_target": "Fatty acid synthase (Homo sapiens, UniProt P49327)", "sequence (P49327 whole entry)": "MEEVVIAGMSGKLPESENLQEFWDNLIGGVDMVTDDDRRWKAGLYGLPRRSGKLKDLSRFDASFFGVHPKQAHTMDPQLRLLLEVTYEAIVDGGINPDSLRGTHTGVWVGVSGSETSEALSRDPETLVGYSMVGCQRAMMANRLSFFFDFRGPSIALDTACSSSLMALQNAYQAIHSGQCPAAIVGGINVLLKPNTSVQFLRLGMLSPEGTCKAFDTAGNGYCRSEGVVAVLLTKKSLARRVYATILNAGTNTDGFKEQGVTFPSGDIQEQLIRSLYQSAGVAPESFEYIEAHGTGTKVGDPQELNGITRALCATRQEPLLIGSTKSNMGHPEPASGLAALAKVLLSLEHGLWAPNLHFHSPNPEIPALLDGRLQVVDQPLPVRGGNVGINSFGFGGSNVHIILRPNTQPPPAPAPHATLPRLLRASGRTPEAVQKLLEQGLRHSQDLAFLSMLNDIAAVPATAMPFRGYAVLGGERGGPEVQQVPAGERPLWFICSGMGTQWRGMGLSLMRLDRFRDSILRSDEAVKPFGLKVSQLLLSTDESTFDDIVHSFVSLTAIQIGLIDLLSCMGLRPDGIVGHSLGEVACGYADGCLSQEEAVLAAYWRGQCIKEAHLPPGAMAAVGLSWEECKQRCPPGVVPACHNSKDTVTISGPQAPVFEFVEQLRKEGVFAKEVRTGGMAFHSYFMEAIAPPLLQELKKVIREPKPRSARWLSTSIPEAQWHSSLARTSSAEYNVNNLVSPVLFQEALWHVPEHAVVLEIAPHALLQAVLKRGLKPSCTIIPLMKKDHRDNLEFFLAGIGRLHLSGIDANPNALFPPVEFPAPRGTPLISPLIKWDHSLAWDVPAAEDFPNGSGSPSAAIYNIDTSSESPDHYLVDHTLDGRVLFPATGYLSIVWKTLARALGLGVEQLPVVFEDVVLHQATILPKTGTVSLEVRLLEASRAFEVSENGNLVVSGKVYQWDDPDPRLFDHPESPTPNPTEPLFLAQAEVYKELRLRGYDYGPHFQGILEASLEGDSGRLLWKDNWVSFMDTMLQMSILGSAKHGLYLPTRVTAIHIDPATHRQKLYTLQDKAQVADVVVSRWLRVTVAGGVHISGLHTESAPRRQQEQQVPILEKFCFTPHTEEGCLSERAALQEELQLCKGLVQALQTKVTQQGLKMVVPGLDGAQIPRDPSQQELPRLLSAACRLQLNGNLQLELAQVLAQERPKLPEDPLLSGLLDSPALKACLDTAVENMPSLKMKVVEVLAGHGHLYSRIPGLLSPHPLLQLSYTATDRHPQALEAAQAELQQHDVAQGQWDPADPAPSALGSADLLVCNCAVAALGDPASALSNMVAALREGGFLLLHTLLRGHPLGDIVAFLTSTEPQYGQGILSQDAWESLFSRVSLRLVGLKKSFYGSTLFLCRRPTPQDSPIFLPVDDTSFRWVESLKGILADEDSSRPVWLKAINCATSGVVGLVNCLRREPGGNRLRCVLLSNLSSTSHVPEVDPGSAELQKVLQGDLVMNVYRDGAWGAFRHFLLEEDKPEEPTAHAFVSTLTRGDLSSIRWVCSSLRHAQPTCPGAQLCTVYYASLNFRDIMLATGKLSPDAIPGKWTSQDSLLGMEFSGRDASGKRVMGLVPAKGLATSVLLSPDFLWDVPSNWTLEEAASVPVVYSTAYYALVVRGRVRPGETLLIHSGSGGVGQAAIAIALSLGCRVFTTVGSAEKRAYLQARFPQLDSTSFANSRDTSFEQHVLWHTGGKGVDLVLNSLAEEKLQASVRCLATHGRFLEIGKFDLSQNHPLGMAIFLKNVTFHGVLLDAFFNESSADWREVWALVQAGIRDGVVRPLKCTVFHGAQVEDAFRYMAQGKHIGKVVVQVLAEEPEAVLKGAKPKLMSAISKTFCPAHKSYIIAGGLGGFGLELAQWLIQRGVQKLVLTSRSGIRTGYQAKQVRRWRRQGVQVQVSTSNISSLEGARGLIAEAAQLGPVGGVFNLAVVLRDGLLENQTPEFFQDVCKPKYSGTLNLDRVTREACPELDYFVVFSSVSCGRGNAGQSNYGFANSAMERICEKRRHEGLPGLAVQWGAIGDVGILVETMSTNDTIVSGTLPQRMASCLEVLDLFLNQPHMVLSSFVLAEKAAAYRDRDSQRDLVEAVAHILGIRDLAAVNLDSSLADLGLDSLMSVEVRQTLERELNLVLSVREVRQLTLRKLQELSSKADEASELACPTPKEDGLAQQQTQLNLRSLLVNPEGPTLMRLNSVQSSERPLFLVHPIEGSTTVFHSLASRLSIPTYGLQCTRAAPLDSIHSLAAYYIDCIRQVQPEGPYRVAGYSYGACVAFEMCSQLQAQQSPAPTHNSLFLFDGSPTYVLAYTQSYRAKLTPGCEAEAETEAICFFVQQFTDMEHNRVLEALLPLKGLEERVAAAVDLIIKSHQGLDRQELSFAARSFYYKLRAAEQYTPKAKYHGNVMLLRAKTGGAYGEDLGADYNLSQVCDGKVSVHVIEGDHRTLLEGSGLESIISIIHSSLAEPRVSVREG", "test": "inhibition of human FAS-TE enzyme activity – biochemical, kinetic fluorescence intensity, dose response (AID 624326);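 note: rate of fluorescence rise from hydrolysis of a fluorogenic O-methyl fluorescein ester substrate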", "type": "functional"}, "[12]": {"molecular_target": "T1, Corticotropin-releasing factor receptor 2/Corticotropin-releasing factor-binding protein (Homo sapiens, UniProt P24387+Q13324)", "T1 sequence (Q13324 whole entry)": "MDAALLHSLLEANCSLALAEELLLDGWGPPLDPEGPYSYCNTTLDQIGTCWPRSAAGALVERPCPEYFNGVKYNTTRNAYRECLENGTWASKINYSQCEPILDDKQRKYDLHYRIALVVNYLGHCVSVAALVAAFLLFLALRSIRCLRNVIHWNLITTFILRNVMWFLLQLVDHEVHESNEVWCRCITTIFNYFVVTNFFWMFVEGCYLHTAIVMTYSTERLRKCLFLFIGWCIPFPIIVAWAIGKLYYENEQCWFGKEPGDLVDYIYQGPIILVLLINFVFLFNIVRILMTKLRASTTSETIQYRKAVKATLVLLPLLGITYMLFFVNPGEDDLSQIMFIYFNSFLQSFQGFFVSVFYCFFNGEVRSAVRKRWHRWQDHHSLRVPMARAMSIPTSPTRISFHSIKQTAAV", "T1 sequence (P24387 whole entry)": "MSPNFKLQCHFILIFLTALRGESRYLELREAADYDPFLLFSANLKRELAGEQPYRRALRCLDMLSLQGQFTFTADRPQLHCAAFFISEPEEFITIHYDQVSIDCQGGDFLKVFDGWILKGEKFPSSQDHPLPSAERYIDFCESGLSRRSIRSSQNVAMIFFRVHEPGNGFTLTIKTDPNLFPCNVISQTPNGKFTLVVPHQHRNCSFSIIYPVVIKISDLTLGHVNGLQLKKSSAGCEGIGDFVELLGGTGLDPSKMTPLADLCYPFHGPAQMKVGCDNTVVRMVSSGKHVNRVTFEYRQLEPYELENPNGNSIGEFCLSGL", "test": "activators of CRF receptor 2 with binding protein – uHTS hits, confirmation (AID 602473)", "type": "functional", "details": "read-out: EC50_Mean"}, "[13]": {"molecular_target": "T1, Corticotropin-releasing factor receptor 2/Corticotropin-releasing factor-binding protein", "test": "Dose Response confirmation of uHTS hits for small molecule antagonists of the CRF-binding protein and CRF-R2 receptor complex.", "type": "functional", "details": "read-out: IC50_Mean"}, "H9c2": {"system": "H9c2", "test": "cells", "type": "functional, cell-based", "details": "Rattus norvegicus, H9c2, Myocardium"}},
  "note": "Activity calls are given as the source filed them.",
  "data": [
    {"smiles": "C[C@H]1CN([C@@H](C)CO)C(=O)c2cccc(NC(=O)Nc3ccccc3)c2O[C@@H]1CN(C)Cc1ccc(C(=O)Nc2ccccc2N)cc1", "values": [
      {"measurement": "AC50", "setting": "[1]", "result": "1.54 µM (active)"}
    ]},
    {"smiles": "CCN1C(=O)C(C)S/C1=N\\S(=O)(=O)c1ccc(F)cc1", "note": "(centres undefined)", "values": [
      {"measurement": "IC50", "setting": "[2]", "result": "4.37 µM (not active)"}
    ]},
    {"smiles": "COc1ccc(S(=O)(=O)Nc2ccc3c(c2)CC(=O)N([C@H](C)CO)C[C@@H](C)[C@H](CN(C)Cc2ccc4c(c2)OCO4)O3)cc1", "values": [
      {"measurement": "AC50", "setting": "[1]", "result": "5.51 µM (active)"}
    ]},
    {"smiles": "Cc1cccc(CN2C(=O)/C(=C\\c3ccc(C(=O)NCCCN4CCN(C)CC4)cc3)Oc3ccccc32)c1", "values": [
      {"measurement": "EC50", "setting": "[3]", "result": "> 120 µM (not active)"},
      {"measurement": "EC50", "setting": "[4]", "result": "> 120 µM (not active)"},
      {"measurement": "AC50", "setting": "[5]", "result": "3.6 µM (active)"},
      {"measurement": "EC50", "setting": "[6]", "result": "10.6 µM (active)"}
    ]},
    {"smiles": "O=S(=O)(NCc1csc(-c2ccccc2)n1)c1ccc(Cl)s1", "values": [
      {"measurement": "IC50", "setting": "[7]", "result": "> 80 µM (inactive)"}
    ]},
    {"smiles": "CC(C)NC(=O)Nc1ccc2c(c1)CC(=O)N([C@H](C)CO)C[C@H](C)[C@H](CN(C)Cc1ccc(C(=O)Nc3ccccc3N)cc1)O2", "values": [
      {"measurement": "AC50", "setting": "[1]", "result": "4 µM (active)"}
    ]},
    {"smiles": "CCCNC(=O)Cn1sc2nc(C)cc(C)c2c1=O", "values": [
      {"measurement": "EC50", "setting": "[8]", "result": "9.56 µM (active)"},
      {"measurement": "EC50", "setting": "[9]", "result": "3.08 µM (active)"},
      {"measurement": "IC50", "setting": "[10]", "result": "5.41 µM (active)"},
      {"measurement": "IC50", "setting": "[7]", "result": "45.5 µM (inactive)"}
    ]},
    {"smiles": "Cc1cccc2sc(NC(=O)C3c4ccccc4Oc4ccccc43)nc12", "values": [
      {"measurement": "CC50", "setting": "[11]", "result": "15.1 µM (active)"},
      {"measurement": "AC50", "setting": "[5]", "result": "2.83 µM (active)"}
    ]},
    {"smiles": "COc1ccc(/C=C(\\NC(=O)c2ccc([N+](=O)[O-])cc2)C(=O)NCCN2CCOCC2)cc1", "values": [
      {"measurement": "IC50", "setting": "Fatty acid synthase", "result": "5.27 µM (active)"}
    ]},
    {"smiles": "C[C@@H]1CN([C@@H](C)CO)C(=O)c2cccc(NC(=O)NC3CCCCC3)c2O[C@H]1CN(C)Cc1ccc(C(F)(F)F)cc1", "values": [
      {"measurement": "AC50", "setting": "[1]", "result": "2.86 µM (active)"}
    ]},
    {"smiles": "COc1ccc2cc3cc(C(=O)N4CC(C)CC(C)C4)oc3nc2c1", "note": "(centres undefined)", "values": [
      {"measurement": "IC50", "setting": "Fatty acid synthase", "result": "3.88 µM (active)"}
    ]},
    {"smiles": "C[C@H]1CN([C@@H](C)CO)C(=O)c2cc(NC(=O)Nc3ccc4c(c3)OCO4)ccc2O[C@@H]1CN(C)Cc1ccc(Oc2ccccc2)cc1", "values": [
      {"measurement": "AC50", "setting": "[1]", "result": "4.01 µM (active)"}
    ]},
    {"smiles": "C[C@H](CO)N1C[C@H](C)[C@H](CN(C)Cc2ccc3c(c2)OCO3)Oc2ccc(NC(=O)NC3CCCCC3)cc2C1=O", "values": [
      {"measurement": "AC50", "setting": "[1]", "result": "1.82 µM (active)"}
    ]},
    {"smiles": "CCC(CC)c1nnc(NC(=O)COc2ccc3c(c2)OCO3)s1", "values": [
      {"measurement": "IC50", "setting": "[10]", "result": "53.2 µM (active)"}
    ]},
    {"smiles": "C=CCn1c(-c2cc(OC)cc(OC)c2)n[nH]c1=S", "values": [
      {"measurement": "IC50", "setting": "[10]", "result": "8.23 µM (active)"}
    ]},
    {"smiles": "COc1cc(OC)c2ccc(=O)oc2c1C(CCN1CCOCC1)c1ccc2c(c1)OCO2", "note": "(centres undefined)", "values": [
      {"measurement": "EC50", "setting": "[12]", "result": "> 53 µM (inactive)"},
      {"measurement": "IC50", "setting": "[13]", "result": "> 47.1 µM (inactive)"}
    ]},
    {"smiles": "Cc1noc(NS(=O)(=O)c2ccc(N/C=C\\C(=O)c3cccc4ccccc34)cc2)c1C", "values": [
      {"measurement": "EC50", "setting": "[12]", "result": "> 53 µM (inactive)"},
      {"measurement": "IC50", "setting": "[13]", "result": "> 47.1 µM (inactive)"}
    ]},
    {"smiles": "COc1ccc(NC(=S)N2CCC(N(C)CCN3CCOCC3)CC2)cc1Cl", "values": [
      {"measurement": "EC50", "setting": "[12]", "result": "> 53 µM (inactive)"},
      {"measurement": "IC50", "setting": "[13]", "result": "> 47.1 µM (inactive)"}
    ]},
    {"smiles": "O=C(COC(=O)CCc1nc(O)c2ccccc2n1)NCc1ccc(F)cc1", "values": [
      {"measurement": "IC50", "setting": "H9c2", "result": "> 79 µM (inactive)"}
    ]}
  ]
}
